Measured values reported in patent US12589158B2 (priority 2022, dated 2026).
Like-named read-outs stand apart in the source and are kept apart here.

Experiments:
[1] = in vivo
[2] = Pharmacokinetics in cynomolgus monkeys; settings: cynomolgus monkey, in vivo
Description: After subcutaneous or intravenous administration to cynomolgus monkeys, plasma is collected and the drug concentration in plasma is determined to illustrate the in vivo pharmacokinetic properties of the compound according to the present invention. The compound is dissolved in 1.4% PG in 8 mM Na2HPO4 Buffer (pH 7.39), and filtered through a filter membrane (PTFE, 0.45 μm) to obtain 25 and 12.5 nmol/mL solution of the compound respectively. The obtained solutions are administered to cynomolgus monkeys (4-8 kg) at a dose of 25 nmol/kg subcutaneously (s.c.) or 12.5 nmol/kg intravenously (i.v.). […] The blood samples are centrifuged at 2200 g for 10 minutes to obtain a plasma, which is stored at −90° C. to −60° C. for further analysis and assay.
70.0 μL of thawed plasma sample is taken. 70 μL of acetonitrile (containing 1 ng/ml of the internal standard) is added to precipitate protein. The mixture is vortexed for 1 minute, and centrifuged at 14000 rpm for 10 minutes. 60.0 μL of the supernatant is taken, into which 60.0 μL of 0.5% aqueous formic acid solution is added. The mixture is vortexed for 5 minutes. 10 μL of the mixture solution is sampled and injected into the LC-MS/MS to determine the drug concentration in plasma.
Based on the drug concentration in plasma of the compounds in the cynomolgus monkeys, the pharmacokinetic parameters are calculated by applying the software Winnolin 8.2 in a non-compartmental model, and the results are shown in Table 9 and Table 10 below.

[3] = Pharmacokinetics in C57 mice; settings: C57, mouse, in vivo
Description: After subcutaneous or intravenous administration to C57 mice, plasma is collected and the drug concentration in plasma is determined to illustrate the in vivo pharmacokinetic properties of the compound according to the present invention. […] 20.0 μL of thawed plasma sample is taken. 20 μL of 50% aqueous methanol solution (containing 100 ng mL^−1 internal standard) and 60 μL of acetonitrile are added sequentially to precipitate protein. The mixture is vortexed for 5 minutes, and centrifuged at 3700 rpm for 8 minutes. 50.0 μL of the supernatant is taken, into which 50.0 μL of 0.5% aqueous formic acid solution is added. The mixture is vortexed for 5 minutes. 50 μL of the mixture solution is sampled and injected into the LC-MS/MS to determine the drug concentration in plasma.

[4] = format: in vivo; settings: rat, in vivo, male SD rats
Description: (§1) 77 SD male rats (SPF grade) are selected and randomly divided into 10 groups based on body weight. Group 1 is the vehicle control group, including 5 animals. […] Group 5 to Group 7 are the groups administrated with the test substance 1; and Group 8 to Group 10 are the groups administrated with the test substance 2, each group including 8 animals, wherein 5 animals for primary test, and 3 animals for toxicokinetics test, and the administration dose is 1, 3 and 10 mg/kg respectively. Each of the above groups is continuously administered twice a week for 2 weeks (administrating at Day 1, Day 5, Day 8, Day 12 and Day 15).
(§2) During the experiment, the cage condition monitoring, detailed clinical observations, determination of the food consumption, determination of body weight, measurement of the blood biochemical and hematology indicator, investigation of the gross anatomy, weighing of the organ, studying on toxicokinetic are performed on all the groups of the animals.
(§3) Original data during each time period is tabulated. The average values and standard deviations and/or group change are calculated for each assay endpoint based on the group and sex. For each endpoint, the administrated group will be compared with the control group in the following aspect. A logarithmic conversion is performed to the endpoint data as desired prior to the start of the specific analyses.

SD male rats = format: in vivo
Description: as §1, §2, §3

[5] = Pharmacokinetics following single administration in SD rat; design: species or system SD rats; settings: male, SD, in vivo, sc, 50 nmol/kg
Description: The compound is administrated to male SD rats (230-268 g, n=3) at a dose of 50.0 nmol/kg (s.c.) or 25.0 nmol/kg (i.v.). […] 30.0 μL of thawed plasma sample is taken. 150 μL of acetonitrile solution (containing 5 ng mL^−1 Verapamil, 50 ng·mL^−1 Glibenclamide, 200 ng·mL^−1 Tolbutamide and 200 ng·mL^−1 Diclofenac) are added to precipitate protein. The mixture is vortexed for 5 minutes, and centrifuged at 3700 rpm for 8 minutes. 70.0 μL of the supernatant is taken, into which 70.0 μL of 0.5% aqueous formic acid solution is added. The mixture is vortexed for 5 minutes. 15 μL of the mixture solution is sampled and injected into the LC-MS/MS to determine the drug concentration in plasma. 20.0 μL of thawed plasma sample is taken. 60 μL of acetonitrile solution (containing 5 ng mL^−1 Verapamil, 50 ng·mL^−1 Glibenclamide, 200 ng·mL^−1 Tolbutamide and 200 ng·mL^−1 Diclofenac) are added to precipitate protein. […] The mixture is vortexed for 10 minutes. 10.0 μL of the mixture solution is sampled and injected into the LC-MS/MS to determine the drug concentration in plasma. 30.0 μL of thawed plasma sample is taken. 150 μL of acetonitrile solution (containing 5 ng mL^−1 Verapamil, 50 ng mL^−1 Glibenclamide, 200 ng·mL^−1 Tolbutamide and 200 ng·mL^−1 Diclofenac) are added to precipitate protein. The mixture is vortexed for 5 minutes, and centrifuged at 3700 rpm for 8 minutes. 70.0 μL of the supernatant is taken, into which 70.0 μL of 0.5% aqueous formic acid solution is added. The mixture is vortexed for 5 minutes. 10.0 μL of the mixture solution is sampled and injected into the LC-MS/MS to determine the drug concentration in plasma.

## CC[C@H](C)[C@H](NC(=O)[C@H](CC(C)C)NC(=O)[C@H](Cc1c[nH]c2ccccc12)NC(=O)[C@H](CCC(N)=O)NC(=O)[C@@H](NC(=O)[C@H](Cc1ccccc1)NC(=O)[C@H](C)NC(=O)[C@H](CCCCNC(=O)COCCOCCNC(=O)COCCOCCNC(=O)CC[C@H](NC(=O)CCCCCCCCCCCCCCCCCCC(=O)O)C(=O)O)NC(=O)[C@H](CCC(N)=O)NC(=O)[C@H](C)NC(=O)[C@@H](NC(=O)[C@H](CCCCN)NC(=O)[C@H](CC(=O)O)NC(=O)[C@H](CC(C)C)NC(=O)C(C)(C)NC(=O)[C@@H](NC(=O)[C@H](CO)NC(=O)[C@H](Cc1ccc(O)cc1)NC(=O)[C@H](CC(=O)O)NC(=O)[C@H](CO)NC(=O)[C@@H](NC(=O)[C@H](Cc1ccccc1)NC(=O)[C@@H](NC(=O)CNC(=O)[C@H](CCC(=O)O)NC(=O)C(C)(C)NC(=O)[C@@H](N)Cc1ccc(O)cc1)[C@@H](C)O)[C@@H](C)O)[C@@H](C)CC)[C@@H](C)CC)C(C)C)C(=O)N[C@@H](C)C(=O)NCC(=O)NCC(=O)N1CCC[C@H]1C(=O)N[C@@H](CO)C(=O)N[C@@H](CO)C(=O)NCC(=O)N[C@@H](C)C(=O)N1CCC[C@H]1C(=O)N1CCC[C@H]1C(=O)N1CCC[C@H]1C(=O)N[C@@H](CO)C(N)=O [Tirzepatide]
[1]
  heart rate recovery time: > 120 h
[2]; iv, 12.5 nmol/kg
  AUC(0-inf): 58500 ± 11900 ng·h/mL
  AUC(0-t): 57600 ± 11800 ng·h/mL
  C0: 1170 ± 160 ng/mL
  MRT inf: 74.3 ± 8.76 h
  MRT last: 68.3 ± 8.61 h
  half-life: 59.5 ± 5.22 h
[2]; sc, 25 nmol/kg
  AUC(0-inf): 150000 ± 39100 ng·h/mL
  AUC(0-t): 148000 ± 38200 ng·h/mL
  Cmax: 1300 ± 300 ng/mL
  MRT inf: 105 ± 7.58 h
  MRT last: 99.6 ± 6.26 h
  Tmax: 22.7 ± 10.1 h
  half-life: 62.5 ± 6.07 h
[3]; iv
  AUC(0-inf): 12800 ng·h/mL
  AUC(0-t): 12700 ng·h/mL
  C0: 1900 ng/mL
  MRT inf: 12 h
  MRT last: 11.4 h
  half-life: 10.5 h
[3]; sc
  AUC(0-inf): 19700 ng·h/mL
  AUC(0-t): 19400 ng·h/mL
  Cmax: 871 ng/mL
  MRT inf: 15.3 h
  MRT last: 14.5 h
  Tmax: 6 h
  half-life: 9.21 h
[4]; MTD for 2 weeks, twice a week
  MTD: 2.08 µmol/kg
[4]; continuously administered twice a week for 2 weeks
  MTD: > 10 mg/kg
SD male rats; male SD rats, 1, 3, 10 mg/kg
  Toxicokinetic: Cmax and AUC versus dose: increase nearly proportionally to the dose
SD male rats; male SD rats, continuously administered twice a week for 2 weeks
  Toxicokinetic: accumulation: no substantial accumulation
SD male rats; rat MTD for 2 weeks vs efficacy dose in db/db mice
  Safety Window (based on dosage): 416
SD male rats; rat, in vivo
  Safety Window (based on exposure AUClast): 130
  dose at which decrease of the body weight is observed after the first administration: ≥ 3 mg/kg
[5]
  AUC(0-inf): 3.67 ± 1.19 µM·h
  AUC(0-t): 3.61 ± 1.2 µM·h
  Cmax: 128 ± 42.8 nM
  MRT inf: 20.3 ± 0.755 h
  MRT last: 19 ± 0.265 h
  Tmax: 7.33 ± 1.15 h
  half-life: 11.4 ± 1.79 h
